Columns and labels:
[1] = test system: Staphylococcus epidermitis; experiment: Bacterial growth inhibition screen in LB media (absorbance 595 nm), percent inhibition; conditions: S. epidermitis
[2] = target: T1, bacterial NAD synthetase enzyme (Bacillus subtilis, UniProt P08164); experiment: biochemical; type: biochemical
T1 sequence (P08164 2-272 limits assumed): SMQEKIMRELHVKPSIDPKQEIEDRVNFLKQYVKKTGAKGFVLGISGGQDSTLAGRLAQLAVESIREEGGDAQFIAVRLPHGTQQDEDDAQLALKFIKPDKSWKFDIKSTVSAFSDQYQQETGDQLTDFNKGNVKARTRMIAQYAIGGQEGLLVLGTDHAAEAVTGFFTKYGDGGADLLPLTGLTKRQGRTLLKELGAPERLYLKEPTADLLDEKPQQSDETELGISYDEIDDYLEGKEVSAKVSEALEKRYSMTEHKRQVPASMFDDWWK

[3] = compound at 0.2 mM (Table 312A)
[4] = compound at 0.2 mM (Table 312B)

O=C(OCCCCn1ccc2cc([N+](=O)[O-])ccc21)c1cnc2ccccc2c1 [Compound 830]
% Inhibition ([1]; concentration screened 10 uM): 42.99%

C[N+](C)(C)c1cccc(C(=O)OCCCCn2ccc3cc(OCc4ccccc4)ccc32)c1 [Compound 805]
% Inhibition ([1]; concentration screened 10 uM): 50.87%

CC(=O)c1ccc2[nH]c(CCCCCCCCOC(=O)c3cccc(N(C)C)c3)cc2c1 [Compound 635]
% Inhibition ([1]; concentration screened 100 uM): 7.47%

O=C(OCCCCCCCCc1cc2cc(Oc3ccccc3)ccc2[nH]1)c1ccncc1 [Compound 701]
% Inhibition ([1]; concentration screened 10 uM): 3.88%

CC(=O)c1ccc2[nH]c(CCCCOC(=O)c3cccc(N(C)C)c3)cc2c1 [Compound 633]
% Inhibition ([1]; concentration screened 100 uM): 5.53%

c1ccc(Oc2ccc3[nH]c(CCC[n+]4cccc5ccccc54)cc3c2)cc1 [Compound 456]
% Inhibition ([1]; concentration screened 10 uM): 3.69%

FC(F)(F)c1ccc2[nH]c(CCCCCC[n+]3cccc4ccccc43)cc2c1 [Compound 471]
% Inhibition ([1]; concentration screened 10 uM): 14.07%

CC(C)c1ccc2[nH]c(CCCCOC(=O)c3cccc(N(C)C)c3)cc2c1 [Compound 624]
% Inhibition ([1]; concentration screened 100 uM): 19.16%

O=C(OCCCCCCCCc1cc2cc(C(F)(F)F)ccc2[nH]1)c1cccnc1 [Compound 656]
% Inhibition ([1]; concentration screened 10 uM): 2.59%

CN(C)c1ccc(C(=O)OCCCCCCCc2cc3cc(C(F)(F)F)ccc3[nH]2)cc1 [Compound 610]
% Inhibition ([1]; concentration screened 10 uM): 33.51%

CC(=O)c1ccc2[nH]c(CCCCOC(=O)C(c3ccccc3)c3ccccc3)cc2c1 [Compound 669]
% Inhibition ([1]; concentration screened 100 uM): 11.24%

CC(C)c1ccc2[nH]c(CCCCCCCCOC(=O)c3ccccc3-c3ccccc3)cc2c1 [Compound 632]
% Inhibition ([1]; concentration screened 100 uM): 22.42%

O=C(OCCCCc1cc2cc(C(=O)c3ccccc3)ccc2[nH]1)c1cccnc1 [Compound 693]
% Inhibition ([1]; concentration screened 10 uM): 14.37%

CC(C)c1ccc2[nH]c(CCCCCCCCOC(=O)c3cccnc3)cc2c1 [Compound 668]
% Inhibition ([1]; concentration screened 10 uM): 3.07%

CC(=O)c1ccc2[nH]c(CCCCCCCCOC(=O)c3ccccc3-c3ccccc3)cc2c1 [Compound 641]
% Inhibition ([1]; concentration screened 100 uM): 8.10%

CN(C)c1ccc(C(=O)OCCCCCCCc2cc3cc(C(=O)c4ccccc4)ccc3[nH]2)cc1 [Compound 646]
% Inhibition ([1]; concentration screened 10 uM): 1.09%

O=C(OCCCCc1cc2cc(Oc3ccccc3)ccc2[nH]1)c1ccccc1-c1ccccc1 [Compound 621]
% Inhibition ([1]; concentration screened 100 uM): 11.75%

CC(=O)c1ccc2[nH]c(CCCCOC(=O)c3cccc([N+](C)(C)C)c3)cc2c1 [Compound 877]
% Inhibition ([2]; compound at 0.25 mM): 98.3%

O=[N+]([O-])c1cc([N+](=O)[O-])c2[nH]c(CCCC[n+]3ccc4ccccc4c3)cc2c1 [Compound 523]
% Inhibition [2, 3]: 18.12%

O=C(OCCCCCCCCOc1ccc(N2C(=O)c3ccccc3C2=O)cc1)c1cccnc1 [Compound 1017]
% Inhibition [2, 4]: 23%

C[n+]1cccc(C(=O)OCCCCCCCCOc2ccccc2C(N)=O)c1 [compound 1060]
% Inhibition [2, 4]: 19%

C[N+](C)(C)c1ccc(CC(=O)OCCCCCCCCOc2cccc(OC(=O)c3ccccc3)c2)cc1 [Compound 1079]
IC50 [2]: 36.2 µM
inhibition at 200 µM [2]: 97%

COc1cccc(OCCCCCCCCOC(=O)Cc2ccc([N+](C)(C)C)cc2)c1 [Compound 1077]
% Inhibition [2, 4]: 73%

COC(=O)c1ccc2[nH]c(CCCCCCCC[n+]3ccccc3)cc2c1 [Compound 383]
% Inhibition [2, 3]: 2.76%

O=C(O)c1ccc2[nH]c(CCCCCCCC[n+]3cccc4ccccc43)cc2c1 [Compound 497]
% Inhibition [2, 3]: 29.10%

FC(F)(F)c1ccc2cc(CCCC[n+]3ccccc3)[nH]c2c1 [Compound 289]
% Inhibition [2, 3]: 9.28%

C[n+]1cccc(C(=O)OCCCCCCCCOc2ccccc2[N+](=O)[O-])c1 [compound 1055]
% Inhibition [2, 4]: 46%

c1ccc2c[n+](CCCCc3cc4ccccc4[nH]3)ccc2c1 [Compound 499]
% Inhibition [2, 3]: 25.59%

COc1ccc2c(ccn2CCCCCOC(=O)c2ccc[n+](C)c2)c1 [Compound 761]
% Inhibition [2, 3]: 6.88%

O=C(O)c1ccc2[nH]c(CCCCCC[n+]3cccc4ccccc43)cc2c1 [Compound 495]
% Inhibition [2, 3]: 6.80%

O=[N+]([O-])c1ccc2[nH]c(CCCCCCCC[n+]3ccccc3)cc2c1 [Compound 335]
% Inhibition [2, 3]: 3.28%

O=[N+]([O-])c1cc([N+](=O)[O-])c2[nH]c(CCCC[n+]3ccccc3)cc2c1 [Compound 307]
% Inhibition [2, 3]: 4.40%

c1ccc(C(c2ccccc2)(c2ccccc2)c2ccc3[nH]c(CCCCCC[n+]4cccc5ccccc54)cc3c2)cc1 [Compound 447]
% Inhibition [2, 3]: 2.30%

COC(=O)c1ccc2[nH]c(CCCC[n+]3cccc4ccccc43)cc2c1 [Compound 487]
% Inhibition ([2]; compound at 0.1 mM (Table 314)): 9.88%

c1ccc2[nH]c(CCCCCCCC[n+]3cccc4ccccc43)cc2c1 [Compound 395]
% Inhibition ([2]; compound at 0.1 mM (Table 314)): 20.85%

O=C(O)c1ccc2[nH]c(CCCCCCCC[n+]3ccccc3)cc2c1 [Compound 389]
% Inhibition [2, 3]: 12.44%

CC(=O)c1ccc2[nH]c(CCCCCCCCOC(=O)c3ccc[n+](C)c3)cc2c1 [Compound 924]
IC50 [2]: 25 µM
inhibition at 100 µM [2]: 97.7%

O=[N+]([O-])c1cc([N+](=O)[O-])c2[nH]c(CCCCC[n+]3ccccc3)cc2c1 [Compound 308]
% Inhibition [2, 3]: 33.71%

CC(=O)c1ccc2[nH]c(CCCCCCCOC(=O)Cc3ccc[n+](C)c3)cc2c1 [Compound 938]
% Inhibition ([2]; compound at 0.25 mM): 98.8%

C[N+](C)(C)c1cccc(C(=O)OCCCCCCCc2cc3cc(Oc4ccccc4)ccc3[nH]2)c1 [Compound 872]
IC50 [2]: 50 µM
inhibition at 100 µM [2]: 98.3%

C[n+]1cccc(C(=O)OCCCCCCCCn2ccc3cc([N+](=O)[O-])ccc32)c1 [Compound 867]
% Inhibition [2, 3]: 70.33%

COc1ccc2[nH]c(CCCCCCC[n+]3cccc4ccccc43)cc2c1 [Compound 484]
% Inhibition [2, 3]: 39.95%

c1ccc(C(c2ccccc2)(c2ccccc2)c2ccc3[nH]c(CCCC[n+]4ccccc4)cc3c2)cc1 [Compound 337]
% Inhibition ([2]; compound at 0.1 mM (Table 314)): 35.94%

C[n+]1cccc(C(=O)OCCCCCCCCc2cc3cc(C(=O)c4ccccc4)ccc3[nH]2)c1 [Compound 927]
% Inhibition ([2]; compound at 0.25 mM): 93.1%

C[N+](C)(C)c1ccc(C(=O)OCCCCCCCCc2cc3ccc(C(F)(F)F)cc3[nH]2)cc1 [Compound 885]
% Inhibition ([2]; compound at 0.25 mM): 98.0%

C[N+](C)(C)c1ccc(CC(=O)OCCCCCCCCCn2ccc3ccccc32)cc1 [Compound 982]
IC50 [2]: 60 µM
inhibition at 200 µM [2]: 93.7%

c1ccc2c[n+](CCCCCCCc3cc4ccccc4[nH]3)ccc2c1 [Compound 502]
% Inhibition [2, 3]: 44.08%

O=C(c1ccccc1)c1ccc2[nH]c(CCC[n+]3ccccc3)cc2c1 [Compound 354]
% Inhibition [2, 3]: 2.96%

O=C(OCCCCCCCCOc1cccc(N2CCOCC2)c1)c1cccnc1 [Compound 1018]
% Inhibition [2, 4]: 17%

COc1cccc(OCCCCCCCCOC(=O)c2ccc[n+](C)c2)c1 [compound 1057]
% Inhibition [2, 4]: 59%

CC(C)c1ccc2[nH]c(CCCCCCCC[n+]3ccccc3)cc2c1 [Compound 323]
% Inhibition [2, 3]: 28.08%

C[N+](C)(C)c1ccc(CC(=O)OCCCCCCCCn2ccc3cc(NC(=O)c4ccccc4)ccc32)cc1 [Compound 1104]
IC50 [2]: 61 µM

CCCCc1ccc2[nH]c(CCC[n+]3cccc4ccccc43)cc2c1 [Compound 420]
% Inhibition [2, 3]: 9.16%

FC(F)(F)c1ccc2cc(CCCCCCCC[n+]3ccc4ccccc4c3)[nH]c2c1 [Compound 509]
% Inhibition [2, 3]: 78.00%

CCCCc1ccc2[nH]c(CCCC[n+]3ccccc3)cc2c1 [Compound 313]
% Inhibition ([2]; compound at 0.1 mM (Table 314)): 27.37%

O=C(OCCCCCCCCOc1ccc([N+](=O)[O-])cc1)c1cccnc1 [Compound 995]
% Inhibition [2, 4]: 27%

CC(=O)c1ccc2[nH]c(CCCCCCCCOC(=O)c3cccc([N+](C)(C)C)c3)cc2c1 [Compound 879]
IC50 [2]: 40 µM
inhibition at 100 µM [2]: 99.6%

CC(=O)c1ccc2[nH]c(CCCCCCCOC(=O)c3ccc([N+](C)(C)C)cc3)cc2c1 [Compound 893]
% Inhibition ([2]; compound at 0.25 mM): 13.8%

O=[N+]([O-])c1ccc2[nH]c(CCCCCCCC[n+]3ccc4ccccc4c3)cc2c1 [Compound 551]
% Inhibition [2, 3]: 50.05%

C[n+]1cccc(C(=O)OCCCOc2ccc(Oc3ccccc3)cc2)c1 [Compound 1070]
IC50 [2]: 36.2 µM
inhibition at 200 µM [2]: 82%

COc1ccc2[nH]c(CCCCCCC[n+]3ccc4ccccc4c3)cc2c1 [Compound 592]
% Inhibition [2, 3]: 18.70%

FC(F)(F)c1ccc2cc(CCCCCCC[n+]3ccccc3)[nH]c2c1 [Compound 292]
% Inhibition [2, 3]: 44.36%

CCCCc1ccc2[nH]c(CCCCCCCC[n+]3ccc4ccccc4c3)cc2c1 [Compound 533]
% Inhibition [2, 3]: 24.68%

COc1ccc2c(ccn2CCCCOC(=O)c2ccc[n+](C)c2)c1 [Compound 760]
% Inhibition [2, 3]: 2.28%

CC(=O)c1ccc2[nH]c(CCCC[n+]3ccc4ccccc4c3)cc2c1 [Compound 583]
% Inhibition [2, 3]: 31.37%

From patent US6727237B2, “Inhibitors of bacterial NAD synthetase” (priority 1998, dated 2004)
